Data published in US11786555B2, “RAR selective agonists in combination with immune modulators for cancer immunotherapy” (IO THERAPEUTICS, INC., priority 2017, dated 2023).

Experiments:
[1] = system: naive CD4+ CD25− FoxP3− cells; assay: in vitro Th17 cell differentiation; assay type: cell-based, mouse; settings: 0.1 nM
Experimental: To determine whether a RARα agonist could affect T cell differentiation, T cells were incubated with a RARα agonist to determine its effect on Foxp3 expression. Naive CD4^+ CD25^− FoxP3^− cells were purified from a Foxp3-GFP mouse using flow cytometry by sorting and isolating based upon a GFP^− phenotype. These cells were activated polyclonally with αCD3 in vitro in the presence of IL-2 and TGF-β. These cells were then cultured in media with various concentrations of compound IRX5183 (a RARα agonist) and the expression of FoxP3-GFP was analyzed by flow cytometry. The RARα agonist compound IRX5183 enhanced differentiation of immunosuppressive Treg cells and inhibited differentiation of inflammatory TH17 cells from naïve T cells in vitro (Table 2).

CD4+ T cells = assay: in vivo T cell differentiation in mice (blood and spleen); parameters: species or system mouse; settings: 100 μg every other day for 10 days
Experimental: To expand on the finding above, the in vivo effects of a RARα agonist on T cell differentiation was evaluated in a mouse model. Mice were treated with 100 μg of compound IRX5183 or an equivalent volume of DMSO (vehicle control) every other day for 10 days. Lymphocytes from the blood and spleen were then isolated and FoxP3 expression in CD4^+ T cells was assessed.

[2] = system: H929 cells and primary CD138+ MM cells; assay: clonogenic or cellular recovery of MM cells after BTZ treatment; assay type: cell-based, human; settings: stroma co-culture, 1 μM for 5 days, then BTZ 2.5 nM
Experimental: FIG. 4A-B depicts the clonogenic recovery (CFU) of H929 cells (FIG. 4A) or cellular recovery of primary CD138+ MM cells from 3 different patient samples (FIG. 4B). MM cells were treated with bortezomib (BTZ; 2.5 nM) for 48 hours after being incubated for 5 days either in the absence of stroma (Liquid), with or without the pan-RAR inhibitor AGN (1 μM), or in the presence of BM mesenchymal cells (Stroma), with or without the CYP26 inhibitor R115 (1 μM) or the CYP26-resistant retinoid IRX (1 μM). Clonogenic or cellular recovery was normalized to each condition in the absence of BTZ.
Coculture experiments. 24-well plates were coated with 0.1% gelatin in PBS for 30 min at 37° C. The gelatin solution was removed, and the stromal cells were cultured overnight at a density of 5×10^4 cells/well to obtain a confluent monolayer. At that time, MM cell lines or primary MM cells (1×10^5 in 2 ml) were added to the stroma cultures. The stroma cocultures were incubated at 37° C. in RPMI containing 10% FCS, L-glutamine, and P/S, with or without AGN194310 (1 μM for 5 days), R115866 (1 μM for 5 days), IRX5183 (1 μM for 5 days), or BTZ (2.5 nM for 48 hr).
Clonogenic assays. After treatment, MM cells were collected, washed with PBS, and plated at a density of 5,000 cells/ml in 1 ml of 1.32% methylcellulose supplemented with 30% FBS, 10% BSA, L-glutamine, P/S, and 0.1 mM β-ME. Cells were plated in triplicate in 35-mm culture dishes, incubated at 37° C., and scored for the presence of colonies 14 days later.
A RA-low microenvironment induces BTZ resistance. To determine whether decreased retinoid signaling contributes to BTZ resistance within the BM niche, MM cell lines and MM CD138+ primary cells were incubated with BM stroma for 5 days, followed by BTZ treatment.

RARβ = target: T1, RARβ (Homo sapiens, UniProt P10826); assay: displacement assay, agonist binding affinity; settings: read-out: Binding Affinities for RARβ
T1 construct: cloned receptor RAR molecules are first loaded with radiolabeled all-trans-retinoic acid
T1 sequence (P10826 1-455): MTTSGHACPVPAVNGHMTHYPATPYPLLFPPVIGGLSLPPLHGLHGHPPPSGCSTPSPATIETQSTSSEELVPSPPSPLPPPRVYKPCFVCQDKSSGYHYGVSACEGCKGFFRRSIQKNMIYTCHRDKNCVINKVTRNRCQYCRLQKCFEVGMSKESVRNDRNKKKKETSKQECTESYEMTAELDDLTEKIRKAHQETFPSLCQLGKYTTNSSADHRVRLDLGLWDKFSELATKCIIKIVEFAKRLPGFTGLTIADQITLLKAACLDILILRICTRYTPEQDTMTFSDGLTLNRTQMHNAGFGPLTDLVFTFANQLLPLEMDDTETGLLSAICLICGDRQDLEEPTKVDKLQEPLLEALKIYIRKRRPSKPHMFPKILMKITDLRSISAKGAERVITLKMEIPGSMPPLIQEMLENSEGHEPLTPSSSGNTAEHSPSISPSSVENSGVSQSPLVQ
Experimental: Binding assays are performed using a classic competition assay format in which cloned receptor RAR molecules are first loaded with radiolabeled all-trans-retinoic acid […] and then the amount of radioactivity liberated with increasing concentration of test compound is measured.

H929 Luc+ cells = assay: systemic MM xenograft, bioluminescence; assay type: in vivo, mouse; settings: 4 weeks
Experimental: FIG. 6 depicts bioluminescent images of systemic MM xenografts. Following engraftment of H929 Luc+ cells, mice were treated with IRX (n=4), BTZ (n=5), or a combination of both (n=5) for 4 weeks. Data represent the mean±SEM of the fold change in bioluminescence (photons/second) from day 0.
For the systemic MM model, 2×10^6 Luc+/GFP+ H929 cells were injected via the tail vein into 16-week-old male NSG mice. After engraftment, as determined by an exponential increase in bioluminescence, mice were treated with BTZ (0.5 mg/kg i.p.) twice weekly and with IRX (10 mg/kg) once daily. Tumor burden was assessed by bioluminescence, as above.
To test whether retinoids can enhance BTZ activity in MM, a systemic MM xenograft was developed by injecting 2×10^6 H929 luciferase+ (Luc+) cells via the tail vein of non-obese, diabetic, severe combined immunodeficiency IL-2 receptor y-KO (NSG) mice. The animals were randomized to receive IRX, BTZ, or a combination of both, and disease burden was followed weekly by bioluminescence imaging (FIG. 6).

NB4 cells = assay: CFU experiments, off and on stroma; assay type: cell-based; settings: 10^−7 M ATRA, IRX5183, or 10^−8 M AM80
Source text: (§1) Data across three independent experiments.

Kasumi-1 cells = assay: CFU experiments, off and on stroma; assay type: cell-based; settings: 10^−6 M ATRA, IRX5183, or 10^−7 M AM80
Source text: as §1

OCI-AML3 cells = assay: CFU experiments, off and on stroma; assay type: cell-based; settings: 10^−6 M ATRA, IRX5183, or 10^−7 M AM80
Source text: as §1

## CC1(C)CCC(C)(C)c2c1cc(C(=O)Nc1cc(F)c(C(=O)O)c(F)c1)c(O)c2Cl [IRX5183]
[1]
  Th17 cell Percent Differentiation: 32%
CD4+ T cells; Blood
  Foxp3+ Expression: 4.3%
CD4+ T cells; Spleen
  Foxp3+ Expression: 25%
[2]
  effect on stroma-induced BTZ resistance: overcome
RARβ
  Kd: > 10 µM
H929 Luc+ cells; combination of IRX 10 mg/kg daily and BTZ 0.5 mg/kg twice weekly
  disease burden (bioluminescence): significant (P<0.01) decrease in disease burden
H929 Luc+ cells; monotherapy, BTZ 0.5 mg/kg i.p. twice weekly, IRX 10 mg/kg once daily
  tumor burden (bioluminescence): decrease in tumor burden compared with untreated mice
NB4 cells
  clonogenic growth (CFU), differentiation and elimination of AML: decrease in clonogenic growth compared to control
Kasumi-1 cells
  clonogenic growth (CFU), differentiation and elimination of AML: decrease in clonogenic growth compared to control
OCI-AML3 cells
  clonogenic growth (CFU), differentiation and elimination of AML: decrease in clonogenic growth compared to control
